In US7482363B2, “Piperidine derivatives useful as modulators of chemokine receptor activity” (AstraZeneca AB, priority 2002, dated 2009):

Legend:
[1] = molecular target: T1, human H1 receptor (Homo sapiens, UniProt P35367); assay: Histamine H1 receptor binding, competition displacement of [3H]-pyrilamine; settings: 1 nM [3H]-pyrilamine, membranes of recombinant CHO-K1 cells expressing the human H1 receptor; read-out: H1 antagonism pKi (converted)
T1 construct: purchased Euroscreen SA, Brussels, Belgium ES-390-M; host or cells: CHO-K1
Method: Histamine H1 receptor binding activity of compounds of the invention was assessed by competition displacement of 1 nM [3H]-pyrilamine (Amersham, Bucks, Product code TRK 608, specific activity 30 Ci/mmol) to 2 μg membranes prepared from recombinant CHO-K1 cells expressing the human H1 receptor (Euroscreen SA, Brussels, Belgium, product code ES-390-M) in assay buffer (50 mM Tris pH 7.4 containing 2 mM MgCl2, 250 mM sucrose and 100 mM NaCl) for 1 hour at room temperature.

[2] = system: Human eosinophils (eotaxin mediated chemotaxis); assay: Human eosinophil chemotaxis; format: cell-based
Method: Human Eosinophil Chemotaxis
Human eosinophils were isolated from EDTA anticoagulated peripheral blood as previously described (Hansel et al., J. Immunol. Methods, 1991, 145, 105-110). The cells were resuspended at 10×10^6 ml^−1 in RPMI containing 200 IU/ml penicillin, 200 μg/ml streptomycin sulphate and supplemented with 10% HIFCS, at room temperature.
Eosinophils (700 μl) were pre-incubated for 15 mins at 37° C. with 7 μl of either vehicle or compound (100× required final concentration in 10% DMSO). The chemotaxis plate (ChemoTx, 3 μm pore, Neuroprobe) was loaded by adding 28 μl of a concentration of eotaxin (0.1 to 100 nM) containing a concentration of a compound according to the Examples or solvent to the lower wells of the chemotaxis plate. The filter was then placed over the wells and 25 μl of eosinophil suspension were added to the top of the filter. The plate was incubated for 1 hr at 37° C. in a humidified incubator with a 95% air/5% CO2 atmosphere to allow chemotaxis.
The medium, containing cells that had not migrated, was carefully aspirated from above the filter and discarded. The filter was washed once with phosphate buffered saline (PBS) containing 5 mM EDTA to remove any adherent cells. […] The number of eosinophils migrating was quantified according to the method of Strath et al., J. Immunol. […]

T1 sequence (P35367 whole entry): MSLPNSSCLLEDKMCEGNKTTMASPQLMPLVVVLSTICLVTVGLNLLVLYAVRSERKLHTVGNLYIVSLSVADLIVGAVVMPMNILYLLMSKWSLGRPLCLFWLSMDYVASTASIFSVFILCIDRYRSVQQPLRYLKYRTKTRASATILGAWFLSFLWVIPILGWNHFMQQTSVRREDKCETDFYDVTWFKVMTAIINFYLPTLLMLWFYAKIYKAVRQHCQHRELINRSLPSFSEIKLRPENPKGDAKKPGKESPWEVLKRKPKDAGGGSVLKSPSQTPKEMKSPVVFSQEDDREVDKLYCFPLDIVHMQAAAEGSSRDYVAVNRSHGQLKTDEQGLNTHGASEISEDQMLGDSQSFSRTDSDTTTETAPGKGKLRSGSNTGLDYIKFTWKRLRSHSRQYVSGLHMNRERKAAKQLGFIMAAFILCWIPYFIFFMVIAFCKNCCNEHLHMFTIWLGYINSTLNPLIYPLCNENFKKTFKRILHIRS

Row | Ki [1] [nM] | SMILES | % Inhibition (3 nM Human Eotaxin) [2] [%]
1 | 50.1 | Cc1cc(Cl)ccc1OC1CCN(C2CCN(C(C(=O)O)c3ccccc3)CC2)CC1 (stereo not drawn) [Example 3, 4-(4-chloro-2-methylphenoxy)-α-phenyl-[1,4′-bipiperidine]-1′-acetic acid] | 105
2 | 158 | COc1cccc(OC)c1C(C(=O)O)N1CCC(N2CCC(Oc3ccc(Cl)c(Cl)c3)CC2)CC1 (stereo not drawn) [Example 2, 4-(3,4-dichlorophenoxy)-α-(2,6-dimethoxyphenyl)-[1,4′-bipiperidine]-1′-acetic acid] | 90
